Reference: PubChem BioAssay AID1845205 (Molecular Pharmacology Branch, DTP, NCI, 2023)

System: MPNST multicellular tumor spheroids, viability % test/control
Assay: Anticancer human tumor MPNST cell line growth inhibition;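 further: spheroids exposed to agents for seven days after three days of growth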;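 on viability, T/C: luminescence signal used as surrogate for viable cell amount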
Details: for IC50: curve of first compound; for viability, T/C: stronger effect = lower value
In short: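 Complex spheroids of malignant cells with endothelial cells and mesenchymal stem cells; agents alone or combined, from near clinical Cmax (or 10 microM if unknown) down in half-log steps, 0.25% DMSO final.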

[1] = second compound 1 µM, first compound 0.0316 µM
[2] = second compound 1 µM, first compound 0.1 µM
[3] = second compound 1 µM, first compound 0.316 µM
[4] = second compound 1 µM, first compound 1 µM
[5] = second compound 1 µM, first compound 3.16 µM
[6] = second compound 1 µM, first compound 10 µM
[7] = second compound 3.16 µM, first compound 0.0316 µM
[8] = second compound 3.16 µM, first compound 0.1 µM
[9] = second compound 3.16 µM, first compound 0.316 µM
[10] = second compound 3.16 µM, first compound 1 µM
[11] = second compound 3.16 µM, first compound 3.16 µM
[12] = second compound 3.16 µM, first compound 10 µM
[13] = second compound 10 µM, first compound 0.0316 µM
[14] = second compound 10 µM, first compound 0.1 µM
[15] = second compound 10 µM, first compound 0.316 µM
[16] = second compound 10 µM, first compound 1 µM
[17] = second compound 10 µM, first compound 3.16 µM
[18] = second compound 10 µM, first compound 10 µM
[19] = second compound 31.6 µM, first compound 0.0316 µM
[20] = second compound 31.6 µM, first compound 0.1 µM
[21] = second compound 31.6 µM, first compound 0.316 µM
[22] = second compound 31.6 µM, first compound 1 µM
[23] = second compound 31.6 µM, first compound 3.16 µM
[24] = second compound 31.6 µM, first compound 10 µM
[25] = second compound 100 µM, first compound 0.0316 µM
[26] = second compound 100 µM, first compound 0.1 µM
[27] = second compound 100 µM, first compound 0.316 µM
[28] = second compound 100 µM, first compound 1 µM
[29] = second compound 100 µM, first compound 3.16 µM
[30] = second compound 100 µM, first compound 10 µM

Row | SMILES | IC50 (second compound 1 µM) [nM] | IC50 (second compound 3.16 µM) [nM] | IC50 (second compound 10 µM) [nM] | IC50 (second compound 31.6 µM) [nM] | IC50 (second compound 100 µM) [nM] | viability, T/C [1] [%] | viability, T/C [2] [%] | viability, T/C [3] [%] | viability, T/C [4] [%] | viability, T/C [5] [%] | viability, T/C [6] [%] | viability, T/C [7] [%] | viability, T/C [8] [%] | viability, T/C [9] [%] | viability, T/C [10] [%] | viability, T/C [11] [%] | viability, T/C [12] [%] | viability, T/C [13] [%] | viability, T/C [14] [%] | viability, T/C [15] [%] | further results
1 | CC(C)n1c(=O)n(C)c2cnc3cc(F)c(-c4ccc(OCCCN5CCCCC5)nc4)cc3c21 + Cn1nnc2c(C(N)=O)ncn2c1=O | > 10000 | > 10000 | > 10000 | > 10000 | > 10000 | 87.4 | 83.7 | 82.6 | 77.9 | 79.4 | 61.9 | 84.6 | 82.9 | 92.5 | 99 | 84.9 | 65.2 | 76.6 | 92.4 | 82.4 | viability, T/C [16]: 74.8%; viability, T/C [17]: 77.7%; viability, T/C [18]: 72.1%; viability, T/C [19]: 88.2%; viability, T/C [20]: 89%; viability, T/C [21]: 68.6%; viability, T/C [22]: 81.8%; viability, T/C [23]: 83.7%; viability, T/C [24]: 68.8%; viability, T/C [25]: 76.8%; viability, T/C [26]: 71.8%; viability, T/C [27]: 74.2%; viability, T/C [28]: 71.2%; viability, T/C [29]: 91%; viability, T/C [30]: 67.2%
2 | CC1COCCN1c1cc(-c2ccnn2C)c2ccnc(-c3ccn[nH]3)c2n1 (stereo not given) + Cn1nnc2c(C(N)=O)ncn2c1=O | 198 | 238 | 142 | 386 | 182 | 62 | 55.8 | 45.8 | 39.7 | 34.1 | 35.3 | 62.2 | 56.2 | 47.9 | 39.5 | 31 | 31.9 | 64.2 | 52.2 | 45.2 | viability, T/C [16]: 38.2%; viability, T/C [17]: 35.9%; viability, T/C [18]: 34.4%; viability, T/C [19]: 61.8%; viability, T/C [20]: 57.1%; viability, T/C [21]: 52.5%; viability, T/C [22]: 41.2%; viability, T/C [23]: 32.2%; viability, T/C [24]: 31.5%; viability, T/C [25]: 63.6%; viability, T/C [26]: 54.4%; viability, T/C [27]: 46.1%; viability, T/C [28]: 37.1%; viability, T/C [29]: 30.2%; viability, T/C [30]: 31.8%
3 | COc1cc(C)[nH]c(=O)c1CN1CCc2c(Cl)cc(C(OC)C3COC3)c(Cl)c2C1=O (stereo not given) + Cn1nnc2c(C(N)=O)ncn2c1=O | > 10000 | > 10000 | > 10000 | > 10000 | > 10000 | 89.9 | 80.4 | 78.7 | 88.5 | 94.2 | 107 | 87.7 | 84.4 | 122 | 97.4 | 150 | 95.9 | 81.5 | 106 | 101 | viability, T/C [16]: 97.8%; viability, T/C [17]: 99.9%; viability, T/C [18]: 92.8%; viability, T/C [19]: 79.1%; viability, T/C [20]: 74%; viability, T/C [21]: 92.5%; viability, T/C [22]: 81.7%; viability, T/C [23]: 103%; viability, T/C [24]: 82.7%; viability, T/C [25]: 84%; viability, T/C [26]: 82.7%; viability, T/C [27]: 70.7%; viability, T/C [28]: 80.6%; viability, T/C [29]: 80.7%; viability, T/C [30]: 86.5%
4 | COc1ccc([C@@H](O)c2cc(-c3ncnc4cc(N5CCOCC5)ccc34)c(F)cc2Cl)nn1 + Cn1nnc2c(C(N)=O)ncn2c1=O | 1650 | 1510 | 1820 | 2070 | 1580 | 93.3 | 90.2 | 73.2 | 59 | 39.5 | 23 | 76.4 | 99.1 | 80 | 57.7 | 35.9 | 23.4 | 86.8 | 74.9 | 73 | viability, T/C [16]: 65.5%; viability, T/C [17]: 36.6%; viability, T/C [18]: 24.2%; viability, T/C [19]: 81.2%; viability, T/C [20]: 72.8%; viability, T/C [21]: 75.2%; viability, T/C [22]: 66.5%; viability, T/C [23]: 40.4%; viability, T/C [24]: 26.4%; viability, T/C [25]: 76.3%; viability, T/C [26]: 90.8%; viability, T/C [27]: 68.4%; viability, T/C [28]: 57.7%; viability, T/C [29]: 39.7%; viability, T/C [30]: 25.6%
